From PubChem BioAssay (NCI)
“And” between values parts separate entries of the source, which are not always exact repeats. Equal values may be shown once.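 These data come from cells grown in 96-well plates and exposed to compound for 48 hours at five concentrations. TGI: total growth inhibition.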

What was measured:
Experiment in all cases: NCI tumour cell line growth inhibition, 48 h
CCRF-CEM leukemia = test system: CCRF-CEM leukemia
SF-268 CNS = test system: SF-268 CNS
MOLT-4 leukemia = test system: MOLT-4 leukemia
MCF7 breast = test system: MCF7 breast
SK-MEL-5 melanoma = test system: SK-MEL-5 melanoma
OVCAR-8 ovarian = test system: OVCAR-8 ovarian
SW-620 colon = test system: SW-620 colon
PC-3 prostate = test system: PC-3 prostate
HCT-15 colon = test system: HCT-15 colon
HOP-62 NSCLC = test system: HOP-62 NSCLC

| Compound | TGI (CCRF-CEM leukemia) | TGI (SF-268 CNS) [µM] | TGI (MOLT-4 leukemia) | TGI (MCF7 breast) | TGI (SK-MEL-5 melanoma) [µM] | TGI (OVCAR-8 ovarian) | TGI (SW-620 colon) [µM] | TGI (PC-3 prostate) [µM] | TGI (HCT-15 colon) [µM] | TGI (HOP-62 NSCLC) |
| --- | --- | --- | --- | --- | --- | --- | --- | --- | --- | --- |
| COc1ccc(NC(C)=O)c(C(=O)CCNC(C)=O)c1 | > 100 µM | > 100 | > 100 µM | > 100 µM | > 100 | > 100 µM | > 100 | > 100 | > 100 |  |
| FC(F)(F)C1(C(F)(F)F)OC(Cl)(Cl)C(Cl)(Cl)O1 |  | > 10 |  | > 10 µM | > 10 | > 10 µM | > 10 | > 10 | > 10 | > 10 µM |
| CSc1nc(-c2cc3c(c(SC)n2)CCC3)cc2c1CCC2 | > 100 µM | > 100 | > 100 µM |  | > 100 | > 100 µM | > 100 | > 100 | > 100 | > 100 µM |
| CCCN(CCC)C(=O)Cc1c2n(c3ccccc13)Cc1ccccc1-2 | > 100 µM | > 100 | > 100 µM |  | > 100 | > 100 µM | > 100 |  | > 100 | > 100 µM |
| Cc1ccc(-c2c(C#N)c(S)n(NS(=O)(=O)c3ccccc3)c(=O)c2C#N)cc1 | > 100 µM |  | 61.1 µM | > 100 µM | 69.4 | 55.9 µM | 70 | > 100 | 50.5 |  |
| CCCCN(CCCC)c1ccc(N=Nc2ccc(S(=O)(=O)O)cc2)cc1 | 38.4 µM | > 100 | 35.2 µM | 49.6 µM | 43.4 | 44.9 µM | > 100 | 97.1 | 40.4 |  |
| c1ccc(-c2cc(-c3cc(-c4ccccc4)n[nH]3)[nH]n2)cc1 | > 100 µM | > 100 | > 100 µM | > 100 µM | > 100 | > 100 µM |  | > 100 | > 100 | > 100 µM |
| CC1(C)SC2C(NC(=O)Cc3ccccc3)C(=O)N2C1C(=O)O (configuration not stated) |  | > 100 | > 100 µM | > 100 µM | > 100 | > 100 µM | > 100 | > 100 | > 100 | > 100 µM |
| O=[N+]([O-])c1cccc2nc3ccccc3c(NCCNCCO)c12 | 0.101 µM and 0.0455 µM |  | 0.0891 µM and 0.0113 µM | 0.0373 µM and 0.0177 µM | 0.00391 | 0.158 µM and 0.0328 µM |  | 0.017 | > 100 | 0.0799 µM and 0.0174 µM |
| N#Cc1nc(Cc2ccccc2)oc1N | > 100 µM | > 100 | > 100 µM | > 100 µM | > 100 |  | > 100 | > 100 | > 100 | > 100 µM |
| COc1ccc(/C=N/n2c(Cc3ccc(Cl)cc3)n[nH]c2=O)cc1 | > 100 µM |  | > 100 µM | > 100 µM |  | 74.6 µM | > 100 | > 100 | > 100 | 33.9 µM |
| OCCCN(CCc1ccc(Cl)c(Cl)c1)CCN1CCCC1 | > 100 µM | > 100 | > 100 µM | 79.9 µM |  | > 100 µM | > 100 | > 100 | > 100 | > 100 µM |
| CC(C)(C)OC(=O)/C=C/C(=O)O/C=C/[N+](=O)[O-] | > 100 µM | > 100 |  | > 100 µM | > 100 | > 100 µM | > 100 |  | > 100 | > 100 µM |
| O=C(/C(Cl)=C/c1ccccc1)c1ccccc1 | 11.5 µM | 21.9 | > 21.3 µM | > 28.4 µM | 12.1 | 17.1 µM |  | 11.6 | 8.35 | 41.5 µM |
| COc1ccc(S(=O)Cc2cc(OC)ccc2OC)cc1 (configuration not stated) | > 100 µM | > 100 | > 100 µM | > 100 µM |  | > 100 µM | > 100 | > 100 | > 100 | > 100 µM |
| O=C(c1ccc(Cl)cc1)N(C(=S)N1CCN(c2ccccc2)CC1)c1ccccc1 | > 100 µM | > 100 | > 100 µM |  | > 100 | > 100 µM | > 100 |  | > 100 | > 100 µM |
| C=CCC1(O)c2cccc(O)c2C(=O)c2cccc(O)c21 (configuration not stated) |  | 85.4 | 53.6 µM | 76.9 µM | 26.4 | > 100 µM | > 100 | 47.3 | 51.8 | 49.7 µM |
| O=S(=O)(NC(c1ccccc1)(c1cc2ccccc2[nH]1)c1cc2ccccc2n1S(=O)(=O)c1ccccc1)c1ccccc1 (configuration not stated) | > 100 µM | > 100 | > 100 µM |  | > 100 | > 100 µM | > 100 | > 100 | > 100 | > 100 µM |
| Nc1ccccc1Sc1ccc(Cl)cc1 | 46.6 µM | > 100 |  |  | 32 | > 100 µM | > 100 |  | > 100 | > 100 µM |
| CCOC(=O)c1c(NC(=O)c2ccccc2)sc2c1CCC2 | > 100 µM | > 100 | > 100 µM | > 100 µM | > 100 | > 100 µM |  | > 100 | > 100 | > 100 µM |
| N#C[C@](CO)(NC(=O)OCc1ccccc1)C(F)F | > 100 µM | > 100 | > 100 µM |  | > 100 | > 100 µM | > 100 | > 100 | > 100 | > 100 µM |
| C=CCN1C(=O)/C(=C/c2cccs2)N=C1SC1OC(COC(=O)c2ccccc2)C(OC(=O)c2ccccc2)C1OC(=O)c1ccccc1 (configuration not stated) | 80.9 µM |  | > 100 µM | > 100 µM | > 100 | > 100 µM | > 100 | > 100 | > 100 | > 100 µM |
| COC(=O)[C@H]1ON2O[C@@H](O[C@H]3CCCC[C@@H]3C(C)(C)c3ccccc3)C[C@@H]3CC[C@H]1[C@@]32C | > 100 µM | > 100 | > 100 µM | > 100 µM | > 100 | > 100 µM | > 100 |  | > 100 | > 100 µM |
| CC1(C)OC2CN(C(=O)OCc3ccccc3)C(CO)C2O1 (configuration not stated) |  | > 100 | > 100 µM | > 100 µM | > 100 | > 100 µM | > 100 | > 100 | > 100 | > 100 µM |
